Source: paper PMC8132113 (Cancer letters, 2019)

Target: ABCB1 (Homo sapiens, UniProt P08183)
Assay: vanadate-sensitive ATPase assay
Assay type: biochemical

ABCB1, sequence (P08183 whole entry): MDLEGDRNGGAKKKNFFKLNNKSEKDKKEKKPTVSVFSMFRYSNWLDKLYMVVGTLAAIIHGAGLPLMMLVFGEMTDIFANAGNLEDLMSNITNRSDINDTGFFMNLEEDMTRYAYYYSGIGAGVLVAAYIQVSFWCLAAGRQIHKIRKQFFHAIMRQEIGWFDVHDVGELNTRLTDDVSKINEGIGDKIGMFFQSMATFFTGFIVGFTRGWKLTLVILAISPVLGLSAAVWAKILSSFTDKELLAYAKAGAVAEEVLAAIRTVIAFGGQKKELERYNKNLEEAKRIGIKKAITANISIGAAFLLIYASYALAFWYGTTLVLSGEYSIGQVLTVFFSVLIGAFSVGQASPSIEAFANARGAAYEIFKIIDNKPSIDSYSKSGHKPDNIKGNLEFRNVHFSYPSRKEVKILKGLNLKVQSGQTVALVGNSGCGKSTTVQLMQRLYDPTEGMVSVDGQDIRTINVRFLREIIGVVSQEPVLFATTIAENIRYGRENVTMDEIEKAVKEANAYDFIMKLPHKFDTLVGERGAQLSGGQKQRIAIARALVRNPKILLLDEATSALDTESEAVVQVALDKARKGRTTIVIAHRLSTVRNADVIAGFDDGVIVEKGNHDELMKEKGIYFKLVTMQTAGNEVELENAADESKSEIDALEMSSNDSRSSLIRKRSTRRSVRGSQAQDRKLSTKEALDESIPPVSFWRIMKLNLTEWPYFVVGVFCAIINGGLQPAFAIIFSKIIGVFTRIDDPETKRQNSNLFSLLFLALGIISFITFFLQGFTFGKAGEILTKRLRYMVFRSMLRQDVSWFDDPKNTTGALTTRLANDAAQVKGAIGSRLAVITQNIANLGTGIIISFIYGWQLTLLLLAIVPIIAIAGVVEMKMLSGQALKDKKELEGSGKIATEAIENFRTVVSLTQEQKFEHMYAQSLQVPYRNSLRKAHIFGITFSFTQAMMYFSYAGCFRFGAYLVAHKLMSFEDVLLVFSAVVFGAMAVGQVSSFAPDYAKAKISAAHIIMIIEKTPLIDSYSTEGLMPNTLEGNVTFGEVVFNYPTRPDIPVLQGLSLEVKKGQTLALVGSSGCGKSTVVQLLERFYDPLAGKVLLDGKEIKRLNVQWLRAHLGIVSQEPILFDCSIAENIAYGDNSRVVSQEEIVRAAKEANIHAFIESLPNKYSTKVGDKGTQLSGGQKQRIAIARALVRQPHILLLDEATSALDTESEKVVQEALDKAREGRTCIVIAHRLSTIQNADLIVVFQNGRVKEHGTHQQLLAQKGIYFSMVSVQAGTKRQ

`CO[C@@H]1[C@H](N(C)C(=O)c2ccccc2)C[C@H]2O[C@]1(C)n1c3ccccc3c3c4c(c5c6ccccc6n2c5c31)C(=O)NC4` [midostaurin] showed an IC50 of ~10 µM.
